In ChEMBL document CHEMBL1201862, “PubChem BioAssay data set” (2004):
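A five-concentration, 48-hour dose response in 96-well plates underlies each endpoint, interpolated linearly between surrounding concentrations. GI50 is the concentration that inhibits growth by half.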 Active and inactive are the calls of the source. Rule as the data show it: active = GI50 up to about 1.1 µM and inactive = higher.

What was measured:
Experiment in all cases: DTP human tumour cell line panel, 48 h
HOP-62 = test system: HOP-62
UACC-62 = test system: UACC-62
RXF 393 = test system: RXF 393
OVCAR-5 = test system: OVCAR-5
A549 = test system: A549
SF-268 = test system: SF-268
A498 = test system: A498
HOP-92 = test system: HOP-92
HCT-15 = test system: HCT-15
LOX IMVI = test system: LOX IMVI
CAKI-1 = test system: CAKI-1
SF-539 = test system: SF-539
NCI-H522 = test system: NCI-H522
UACC-257 = test system: UACC-257
IGROV-1 = test system: IGROV-1
RPMI-8226 = test system: RPMI-8226
DU-145 = test system: DU-145
MCF7 = test system: MCF7
NCI/ADR-RES = test system: NCI/ADR-RES

| Compound | GI50 (HOP-62) | GI50 (UACC-62) | GI50 (RXF 393) | GI50 (OVCAR-5) | GI50 (A549) | GI50 (SF-268) | GI50 (A498) | GI50 (HOP-92) | GI50 (HCT-15) | GI50 (LOX IMVI) | GI50 (CAKI-1) | GI50 (SF-539) | GI50 (NCI-H522) | GI50 (UACC-257) | GI50 (IGROV-1) | GI50 (RPMI-8226) | GI50 (DU-145) | GI50 (MCF7) | GI50 (NCI/ADR-RES) |
| --- | --- | --- | --- | --- | --- | --- | --- | --- | --- | --- | --- | --- | --- | --- | --- | --- | --- | --- | --- |
| Cc1c(Cl)cccc1NC(=O)C(=O)c1c(O)c2ccc(O)cc2oc1=O | > 100 µM (inactive) | > 100 µM (inactive) | > 100 µM (inactive) | > 100 µM (inactive) | > 100 µM (inactive) | > 100 µM (inactive) | > 100 µM (inactive) | > 100 µM (inactive) | > 100 µM | > 100 µM (inactive) | > 100 µM (inactive) | > 100 µM (inactive) | > 100 µM (inactive) | > 100 µM (inactive) | > 100 µM (inactive) | – | – | – | – |
| Oc1nc(-c2ccccc2)cc(-c2ccccc2O)n1 | 30.5 µM (inactive) | 77.3 µM (inactive) | 86.5 µM (inactive) | 62.5 µM (inactive) | 83.4 µM (inactive) | > 100 µM (inactive) | > 100 µM (inactive) | 84.5 µM (inactive) | 83.2 µM | 51.5 µM (inactive) | 76.2 µM (inactive) | > 100 µM (inactive) | 69.3 µM (inactive) | > 100 µM (inactive) | > 100 µM (inactive) | 83.9 µM (inactive) | – | – | – |
| C(CCC[Te][Te]CCCCCCOC1CCCCO1)CCOC1CCCCO1 (stereo not given) | 15.1 µM (inactive) | 10.6 µM (inactive) | – | 14 µM (inactive) | 14.5 µM (inactive) | 16.6 µM (inactive) | 17.6 µM (inactive) | 12.2 µM (inactive) | 19.2 µM | 13.6 µM (inactive) | 12.6 µM (inactive) | 17.3 µM (inactive) | – | 6.81 µM (inactive) | 16.5 µM (inactive) | – | – | – | – |
| O=C(CCCNC(=O)OCc1ccccc1)OCc1ccc2c(c1)C(=O)c1ccccc1C2=O | 30.6 µM (inactive) | > 100 µM (inactive) | 22.2 µM (inactive) | > 100 µM (inactive) | > 100 µM (inactive) | 53.8 µM (inactive) | 27.2 µM (inactive) | 36.6 µM (inactive) | > 100 µM | > 100 µM (inactive) | > 56.8 µM (inactive) | 23.1 µM (inactive) | > 100 µM (inactive) | > 100 µM (inactive) | 48.9 µM (inactive) | > 100 µM (inactive) | – | – | – |
| COC(=O)C(C(=O)C(=O)Nc1ccccc1C(C)=O)c1nc2ccc(Cl)cc2nc1O (stereo not given) | > 100 µM (inactive) | > 100 µM (inactive) | 89.7 µM (inactive) | > 100 µM (inactive) | > 100 µM (inactive) | > 100 µM (inactive) | > 100 µM (inactive) | > 100 µM (inactive) | > 100 µM | > 100 µM (inactive) | > 100 µM (inactive) | > 100 µM (inactive) | – | > 100 µM (inactive) | > 100 µM (inactive) | > 100 µM (inactive) | – | – | – |
| O=c1[nH]c2ccccc2cc1C(Cl)=C(Cl)Cl | > 100 µM (inactive) | > 100 µM (inactive) | > 100 µM (inactive) | > 100 µM (inactive) | > 100 µM (inactive) | > 100 µM (inactive) | > 100 µM (inactive) | > 100 µM (inactive) | – | > 100 µM (inactive) | > 100 µM (inactive) | > 100 µM (inactive) | > 100 µM (inactive) | > 100 µM (inactive) | > 100 µM (inactive) | > 100 µM (inactive) | – | – | – |
| C=CCN1CN(c2ccccc2)C2(CCN(CCCC3(c4ccc(F)cc4)OCCO3)CC2)C1=O | 21.1 µM (inactive) | 18.7 µM (inactive) | 14.8 µM (inactive) | 11.3 µM (inactive) | 21.2 µM (inactive) | 18.7 µM (inactive) | – | – | 12.5 µM | 18.5 µM (inactive) | 26.7 µM (inactive) | 10.9 µM (inactive) | 18.9 µM (inactive) | 18.3 µM (inactive) | 19.9 µM (inactive) | 12.4 µM (inactive) | 22.4 µM (inactive) | 14.7 µM (inactive) | 14.4 µM (inactive) |
| CCCCCCCCCCCCCCCC/C(C(=O)OC)=C(/O)C(=O)OCC | > 100 µM (inactive) | > 100 µM (inactive) | > 100 µM (inactive) | > 100 µM (inactive) | > 100 µM (inactive) | > 100 µM (inactive) | > 100 µM (inactive) | 38.9 µM (inactive) | > 100 µM | > 100 µM (inactive) | > 100 µM (inactive) | > 100 µM (inactive) | > 100 µM (inactive) | > 100 µM (inactive) | > 100 µM (inactive) | > 100 µM (inactive) | – | – | – |
| Cc1ccc(C)c(NC(=O)C(=O)Nn2c(S)nc3ccccc3c2=O)c1 | > 100 µM (inactive) | > 100 µM (inactive) | > 100 µM (inactive) | > 100 µM (inactive) | > 100 µM (inactive) | > 100 µM (inactive) | > 100 µM (inactive) | > 100 µM (inactive) | > 100 µM | > 100 µM (inactive) | > 100 µM (inactive) | > 100 µM (inactive) | > 100 µM (inactive) | > 100 µM (inactive) | > 100 µM (inactive) | > 100 µM (inactive) | – | – | – |
| CCN(CC)CCOc1ccc(CCc2cc(OC)c(OC)c(OC)c2)cc1 | 22.6 µM (inactive) | 26.1 µM (inactive) | 34.9 µM (inactive) | 22.3 µM (inactive) | 47.3 µM (inactive) | > 100 µM (inactive) | 22 µM (inactive) | 20.6 µM (inactive) | 30.7 µM | 13.9 µM (inactive) | 53.2 µM (inactive) | 81.7 µM (inactive) | 20 µM (inactive) | 27.9 µM (inactive) | > 100 µM (inactive) | 16.8 µM (inactive) | – | – | – |
| O=C1C(c2ccccc2)=C(c2ccccc2)C(c2ccc(Sc3ccc(C4=C(c5ccccc5)C(=O)C(c5ccccc5)=C4c4ccccc4)cc3)cc2)=C1c1ccccc1 | 60.7 µM (inactive) | > 100 µM (inactive) | 64.9 µM (inactive) | > 100 µM (inactive) | > 100 µM (inactive) | > 100 µM (inactive) | > 100 µM (inactive) | > 100 µM (inactive) | > 100 µM | > 100 µM (inactive) | > 100 µM (inactive) | 72.9 µM (inactive) | > 100 µM (inactive) | > 100 µM (inactive) | > 100 µM (inactive) | > 100 µM (inactive) | – | – | – |
| CC(=O)N(/N=C\c1ccc([N+](=O)[O-])cc1)c1ccccc1 | > 100 µM (inactive) | > 100 µM (inactive) | – | > 100 µM (inactive) | > 100 µM (inactive) | > 100 µM (inactive) | > 100 µM (inactive) | > 100 µM (inactive) | > 100 µM | > 100 µM (inactive) | > 100 µM (inactive) | > 100 µM (inactive) | – | > 100 µM (inactive) | > 100 µM (inactive) | > 100 µM (inactive) | – | – | – |
| Oc1ccc2occ3c2c1CCC3 | > 100 µM (inactive) | 95.9 µM (inactive) | 75.2 µM (inactive) | – | > 100 µM (inactive) | – | > 100 µM (inactive) | 29.2 µM (inactive) | > 100 µM | > 100 µM (inactive) | > 100 µM (inactive) | > 100 µM (inactive) | – | > 100 µM (inactive) | > 100 µM (inactive) | 98.4 µM (inactive) | – | – | – |
| CCOC(=O)Cc1nc(/C(C#N)=C/c2ccco2)[nH]c(=O)c1C#N | > 100 µM (inactive) | 35.4 µM (inactive) | > 100 µM (inactive) | > 100 µM (inactive) | > 100 µM (inactive) | – | – | > 100 µM (inactive) | > 100 µM | > 100 µM (inactive) | > 100 µM (inactive) | > 100 µM (inactive) | 39.2 µM (inactive) | > 100 µM (inactive) | > 100 µM (inactive) | > 100 µM (inactive) | – | – | – |
| CCOc1ccccc1/N=N/c1c(-c2ccccc2)nn(C(=O)CC(=O)Nc2cccc(Cl)c2)c1-c1ccccc1 | 72.9 µM (inactive) | 39.6 µM (inactive) | 95.7 µM (inactive) | 50.8 µM (inactive) | 54 µM (inactive) | 29.2 µM (inactive) | – | 50.7 µM (inactive) | – | 35.7 µM (inactive) | 43.1 µM (inactive) | 62.1 µM (inactive) | 40.5 µM (inactive) | 98.2 µM (inactive) | 68.9 µM (inactive) | 46.9 µM (inactive) | – | – | – |
| COc1ccc(/C(=C/n2ccnc2)C(=O)c2ccc(OC)c(OC)c2)cc1 | > 100 µM (inactive) | 39.3 µM (inactive) | – | > 100 µM (inactive) | > 100 µM (inactive) | > 100 µM (inactive) | > 100 µM (inactive) | > 100 µM (inactive) | > 100 µM | > 100 µM (inactive) | > 100 µM (inactive) | > 100 µM (inactive) | > 100 µM (inactive) | > 100 µM (inactive) | – | > 100 µM (inactive) | – | – | – |
| C/C(=N/N(C=O)C[n+]1ccccc1)C(CN(CC(C)C)CC(C)C)C(=O)Nc1ccc(C)cc1C (stereo not given) | > 100 µM (inactive) | 79.6 µM (inactive) | 42.9 µM (inactive) | 63.1 µM (inactive) | > 100 µM (inactive) | 43 µM (inactive) | 33.1 µM (inactive) | 75.3 µM (inactive) | – | – | 55.1 µM (inactive) | > 100 µM (inactive) | > 100 µM (inactive) | > 100 µM (inactive) | > 100 µM (inactive) | > 100 µM (inactive) | – | – | – |
| N/C(=N\O)N/N=C/c1ccc(O)c(O)c1 | > 100 µM (inactive) | > 100 µM (inactive) | > 100 µM (inactive) | > 100 µM (inactive) | > 100 µM (inactive) | > 100 µM (inactive) | > 100 µM (inactive) | > 100 µM (inactive) | > 100 µM | > 100 µM (inactive) | > 100 µM (inactive) | > 100 µM (inactive) | > 100 µM (inactive) | > 100 µM (inactive) | > 100 µM (inactive) | > 100 µM (inactive) | – | – | – |
